One series relates to E. faecalis isolates. Kind of series: Minimal inhibitory concentration of antibacterial agents, "Eiken" DP42 dry plate. The class given is cell-based, Enterococcus faecalis. To be noted: for MIC: Enterococcus faecalis. As to the method:
(§1) The sensitivity to an antibacterial agent for each of the above-described 30 Enterococcus bacterial strains was invenstigated. Specifically, the bacterial strains prepared in 1 McFarland standard with physiological saline were diluted 500-fold with a BHI culture medium, and then aerobically cultured in solid-phase wells of an “Eiken” DP42 dry plate (Eiken Chemical Co., Ltd., Tokyo, Japan) for 24 hours.
(§2) The minimal inhibitory concentration of any one of the antibacterial agents, i.e., daptomycin (DAP), vancomycin (VCM), teicoplanin (TEIC), and linezolid (LZD), was determined in accordance with the instruction of the product. […] The results obtained by testing resistance to the antibacterial agents of the E. faecalis strains (11 strains) are shown in Table 1 below.

In series [1] the test system is E. faecalis strains JCM5803, JCM8902. Kind of series: Vancomycin resistance evaluation (method of Example 2 (2)). The class given is cell-based. Also on record: key: resistant: +; nonresistant: −. As to the method: as §1, §2
(§3) The hemolytic activity of each of the bacterial strains was measured with a hemolysis assay using a Nissui Plate Horse Blood Agar medium. The cytolysin-related gene was detected with PCR. The vancomycin resistance was evaluated using the method described in (2) in Example 2. The vanA gene and the vanB gene that are vancomycin-resistant genes were detected with PCR. Furthermore, each bacterial strain was aerobically cultured in a BHI culture medium, and centrifuged at 300×g for 5 minutes for collection. The cell pellets were washed, and resuspended in a HiTrap buffer. The phage-derived endolysin was added at a final concentration of 50 μg/mL to the cell resuspension liquid. The resulting suspension was incubated at 37° C., and the lytic activity was measured, using the presence or absence of a bacterial lump as an index.

The subject of series [2] is E. faecium strain JCM5804. Described as above. The class given is cell-based. Also on record: key: resistant: +; nonresistant: −. As to the method: as §1, §2, §3
Another series deals with E. faecium isolates. Kind of series: Minimal inhibitory concentration of antibacterial agents, "Eiken" DP42 dry plate. It counts as cell-based, Enterococcus faecium. To be noted: all E. faecium (19 strains). As to the method:
as §1, §2

The subject of series [3] is biofilms of 11 E. faecalis isolates. The series can be described thus: Biofilm assay using crystal-violet staining. It counts as cell-based, Enterococcus faecalis. To be noted: final concentration of 50 μg/mL, incubated overnight; all 11 E. faecalis strains. As to the method: A biofilm assay was performed, using crystal-violet staining, in accordance with a method described in the past literature (Yang, Y., et al., J Appl Oral Sci., 2018, 26: e20170566; Shao, C., et al., J Proteome res., 2012, 11 (9): 4465-75; He Z., et al., Int J Antimicrob Agents., 2012, 40 (1): 30-5). This assay is a method in which a crystal violet pigment is adsorbed into a bacteria-derived biofilm (comprising an extracellular matrix and the like), and then, ethanol is added to the resulting biofilm to elute the crystal violet pigment, the absorbance of which is measured to quantify the amount of the pigment.
Specifically, each of the 11 species of E. faecalis isolates was cultured at 37° C. overnight in a BHI culture medium supplemented with aztreonam (20 μg/mL), polymyxinB (20 μg/mL), and amphotericinB (4 μg/mL). Then, the isolate was diluted 100-fold with a new BHI culture medium, inoculated into a 96-well flat-bottomed polystyrene microtiter plate (Corning, Inc., Arizona, USA, 353072), and aerobically cultured further at 37° C. for 24 hours. Then, the 96-well plate was washed once with 200 μL of a HiTrap buffer, and 200 μL of phage-derived endolysin or a vehicle (SUMO protein having a His tag added thereto) was added (at a final concentration of 50 μg/mL). […] The absorbance of the sample was measured at 570 nm. […]

Series [4] has as its system GVHD model mice in which patient feces (OCU031_14) with Enterococcus dominance was transplanted. The series can be described thus: Administration to GVHD model mice in which fecal sample was transplanted. The class given is in vivo. To be noted: 200 μg orally three times a week. The procedure: All the animal experiments were performed with the approval of the Animal Care and Use Committee of Osaka Metropolitan University. […] The survival rate after Day 0 was monitored every day, and the composition of the enteric microbes on each of Day 0 and Day 8 was analyzed by 16S rRNA gene sequencing.

Series [5] deals with E. faecalis strains JCM5803, JCM8902. The series can be described thus: Lytic activity using presence or absence of a bacterial lump as an index. It counts as cell-based. More on the design: key to Lysis by endolysin: lyzed: +; not lyzed: −. To be noted: 50 μg/mL; for Lysis by endolysin: 37° C. As to the method:
as §3

Series [6] concerns E. faecium strain JCM5804. Described as above. The class given is cell-based. More on the design: key to Lysis by endolysin: lyzed: +; not lyzed: −. To be noted: 50 μg/mL. The procedure: as §3
Series [7] relates to E. faecalis isolate OCU031_14_8. Kind of series: Lytic activity by turbidity (OD600) of cell resuspension liquid. It counts as cell-based, Enterococcus faecalis. To be noted: final concentration of 50 μg/mL. The procedure:
The E. faecalis isolate OCU031_14_8 was aerobically cultured in a BHI culture medium, and centrifuged at 3,000×g for 15 minutes for collection. The cell pellets were washed, and resuspended in a HiTrap buffer. The phage-derived endolysin was added at a final concentration of 50 μg/mL to the cell resuspension liquid. The turbidity (OD600) was measured with a TVS062CA BioPhoto recorder (ADVANTEC Co., Ltd., Tokyo, Japan) every 1 minute to measure the lytic activity.

The test system of series [8] is GVHD model mice to which E. faecalis OCU031_14_8 strain was administered. The series can be described thus: Administration to GVHD model mice to which E. faecalis was administered. It counts as in vivo. As to the method: All the animal experiments were performed with the approval of the Animal Care and Use Committee of Osaka Metropolitan University. Germ-free C57BL/6 female mice (H2k^b) and SPF 129SvJ/JmsSlc female mice (6 to 8 weeks old) were purchased from SLC Japan Inc. (Hamamatsu, Japan) and CLEA Japan, Inc. (Tokyo, Japan) respectively. The mice were reared under temperature control (23±2° C.) under dark-period conditions from 8 pm to 8 am, and allowed to freely take sterile water and standard solid food for laboratory mice. The germ-free C57BL/6 mice were reared, one individual in one cage.
Before the stem cell transplantation, a suspension of E. faecalis OCU031_14_8 strain was orally administered to the germ-free C57BL/6 female mice. The suspension used was a suspension in which a 2.0×10^8 colony forming unit (cfu) was suspended in 200 μL of sterile PBS. […]
The survival rate after Day 0 was monitored every day. All the survival periods of the groups were statistically analyzed and compared using a generalized Wilcoxon test. […] The number of colonies formed was measured to quantify the amount of E. faecalis bacteria in the feces. […]

In brackets after ≈: the same amount, converted by molar mass. Read-outs that look alike come from different tables or passages of the source.

As for `CN[C@H](CC(C)C)C(=O)N[C@H]1C(=O)N[C@@H](CC(N)=O)C(=O)N[C@H]2C(=O)N[C@H]3C(=O)N[C@H](C(=O)N[C@H](C(=O)O)c4cc(O)cc(O)c4-c4cc3ccc4O)[C@H](O)c3ccc(c(Cl)c3)Oc3cc2cc(c3O[C@@H]2O[C@H](CO)[C@@H](O)[C@H](O)[C@H]2O[C@H]2C[C@](C)(N)[C@H](O)[C@H](C)O2)Oc2ccc(cc2Cl)[C@H]1O` [vancomycin], the MIC in the series on E. faecalis isolates (read-out: Minimal inhibitory concentration, E. faecalis strain OCU009_35_4) came to 2 mg/L (≈ 1.38 µM); in the series with E. faecalis isolates (read-out: Minimal inhibitory concentration, E. faecalis strain OCU009_35_10), 4 mg/L (≈ 2.76 µM); in the series on E. faecalis isolates (read-out: Minimal inhibitory concentration, E. faecalis strain OCU015_56_6), 2 mg/L (≈ 1.38 µM); in the series on E. faecalis isolates (read-out: Minimal inhibitory concentration, E. faecalis strain OCU015_56_7), 2 mg/L (≈ 1.38 µM); in the series with E. faecalis isolates (read-out: Minimal inhibitory concentration, E. faecalis strain OCU031_7_1), 4 mg/L (≈ 2.76 µM); with E. faecalis isolates (read-out: Minimal inhibitory concentration, E. faecalis strain OCU031_7_9) it was 2 mg/L (≈ 1.38 µM). For the same molecule, the MIC in the series on E. faecalis isolates (read-out: Minimal inhibitory concentration, E. faecalis strain OCU031_14_5) stood at 4 mg/L (≈ 2.76 µM); in the series with E. faecalis isolates (read-out: Minimal inhibitory concentration, E. faecalis strain OCU031_14_8), 2 mg/L (≈ 1.38 µM); in the series with E. faecalis isolates (read-out: Minimal inhibitory concentration, E. faecalis strain OCU031_pre_6), 2 mg/L (≈ 1.38 µM); in the series on E. faecalis isolates (read-out: Minimal inhibitory concentration, E. faecalis strain OCU031_pre_7), 2 mg/L (≈ 1.38 µM); in the series on E. faecalis isolates (read-out: Minimal inhibitory concentration, E. faecalis strain OCU031_pre_10), 2 mg/L (≈ 1.38 µM). The “Sensitivity of strains to antibacterial agent” value in the series with E. faecalis isolates (all E. faecalis strains (11 strains)) and in the series on E. faecium isolates was “exhibited sensitivity” in each case. For the same molecule, the figures for the Vancomycin-resistance entry in series [1] (strain JCM5803), in series [1] (strain JCM8902) and in [2] were “−”, “+” and “−”, respectively.

B1: phage-derived endolysin: endolysin of SEQ ID NO: 1 found in prophage sequences of 11 E. faecalis isolates; produced from a His-SUMO-labeled expression vector (protein)
chain: MTLNGIDISSWQSNINVGKEGVSADFVIIKATGGTGYINPDCDRAFQQAISSGKKVAVYHFANEVGLEGTAEQEAEFFLKNIKGYIGKAVLVLDWESTNKGDVPWAKRWLDYVQSKTGVKPMFYTYTNVLQSYNFSSIAKADYGLWLADYGANNPQGYSQPTPPSVPYWNFISMYQYTSNGQLPGWNGRLDLNVFFGDRNMWDKYANPKSNPTPAPPVPPKPKRRYGYRVDDLQFVNGIWQVRNDVLGQPDFDWTENGINVAYIDKINPATGENTPDQELKVGDYFAFQPSSVGIITEQYSLNGKTISHVQFPDEFIWLYTESVEKLIYG
modifications: His-SUMO tag; Enterococcus faecalis-derived prophage
notes: produced from a His-SUMO-labeled expression vector
Consider B1, for which the “Lysis of biofilm (crystal violet, absorbance at 570 nm)” value in series [3] is on record as “lysed”. Besides, the “Ratio of Enterococcus bacteria present in the enteric microbes” value in [4] (8 days after the stem cell transplantation, 16S rRNA gene sequencing) is on record as “decreased significantly”. The Survival rate in [4] (30 days after the stem cell transplantation) stood at 100%; in [8] (25 days after the stem cell transplantation, 200 μg orally three times a week) it was 100%. For the same molecule, the “Lytic activity” value is on record as “exhibited a lytic activity” in series [5] (JCM8902 strain, vancomycin-resistant and cytolysin-positive E. faecalis isolate); “did not exhibit a lytic activity” in series [6] (JCM5804 strain, E. faecium isolate). Also, the Lysis by endolysin entry in [5] (strain JCM5803) is “+”; in [5] (strain JCM8902 (vancomycin-resistant, cytolysin-positive)) it was “+”; in [6] (strain JCM5804, 37° C.) it was “−”. Besides, the “Lytic activity (OD600 turbidity)” value in series [7] is given as “lysed”. Further, the “Amount of the E. faecalis bacteria in the feces” value in series [8] (200 μg orally three times a week (10 mg/kg/day) from Day 0 until the third week) is reported as “noticeable decrease”.
